The assay deals with 171881-019-R-J1-PDC multicell spheroid viability. Kind of assay: Anticancer human tumor 171881-019-R-J1-PDC patient-derived invasive breast carcinoma cell line growth inhibition [IpAb]. Particulars: for viability, T/C: stronger effect = lower value. The source says:
Combinatorial screen of targeted agents with ipatasertib and abemaciclib in multi-cell type tumor spheroids
A high-throughput screen of multi-cell type tumor spheroids was designed to identify active combinations of targeted small molecules and ipatasertib or abemaciclib. Complex spheroids include a stromal component modeled by human endothelial cells (HUVEC) and fibroblasts modeled by human mesenchymal stem cells (MSCs). The concentration ranges selected for each drug and investigational agent were based upon clinically achievable concentrations if the clinical Cmax of the agent was known.
Compounds. The drugs and investigational agents: ipatasertib (NSC767898), abemaciclib(NSC768073), selumetinib (NSC741078), trametinib (758246), adavosertib (NSC754352), everolimus (NSC733504), sapanisertib (NSC764658), vemurafenib (NSC761431), venetoclax (NSC766270), copanlisib (NSC809693), apelisib (NSC765974), palbociblib (NSC758247), vemurafenib (NSC761431), dabrafenib (NSC764134), ravoxertinib (NSC781343), BMS-387032 (NSC767048), sotorasib (NSC818433), talazoparib (NSC767125) and afursertib (NSC778305), were obtained from the National Cancer Institute (NCI) Developmental Therapeutics Program Chemical Repository. The FDA-approved anticancer drug set is available from the NCI Developmental Therapeutics Program. […] The stock solutions were prepared in dimethyl sulfoxide (DMSO, Sigma-Aldrich, St. Louis, MO, cat. D2650) at 800-fold the tested concentration and stored at -70 degrees C prior to their use. All drugs and investigational agents were tested over a range starting from a high concentration at or near the clinical Cmax and decreasing in half-log increments. If the clinical Cmax for an agent had not been determined, the highest concentration tested was 10 microM.
NCI60 Cell Culture. NCI60 cell lines were obtained from the NCI Developmental Therapeutics Program Tumor Repository. For each lot of cells, the Repository performed Applied Biosystems AmpFLSTR Identifiler testing with PCR amplification to confirm consistency with the published Identifier STR profile for each cell line. Cells were kept in continuous culture for no more than 20 passages. The optimal seeding densities for each of the cell lines at each time point assessed were determined prior to performing the concentration response studies. Briefly, the NCI60 human tumor lines were grown as monolayers in RPMI 1640 medium supplemented with 10% FBS and 2 mmol/L L-glutamine.
An additional 9 lines were from the NCI60 cell line panel including MDA-MB-231 breast carcinoma, MDA-MB-468 breast carcinoma, MCF7 breast carcinoma, Hs578T breast carcinoma, MALME-3M melanoma, SK-MEL-2 melanoma, SK-OV-3 ovarian carcinoma, DU-145 prostate carcinoma, PC-3 prostate carcinoma, all cell lines along with major genetic alterations are listed on Table 2. Pooled donor human umbilical vein endothelial cells (HUVEC, Lonza, cat. CC-2519) and human mesenchymal stem cells (hMSC, Lonza, cat. PT-2501) were purchased from Lonza (Walkersville, MD).
PDMR cell lines were grown in complete medium (DC medium): Dulbecco's modified Eagle's medium (DMEM)/F12 supplemented with 5% fetal bovine serum (FBS), 2 mM L-glutamine, 100 U/mL penicillin and 100 µg/ml streptomycin, 0.4 µg/ml hydrocortisone, 10 ng/ml epidermal growth factor (EGF) recombinant human protein, 24 µg/mL adenine, and 0.1 mg/mL primocin. During culture from frozen stock vials, PDMR cells were cultured in the same medium containing 10 µM Y-27632 (see Table 3). The PDCs were cultured in complete DMEM/F12 media without 10 microM Y-27632 dihydrochloride for at least two passages prior to the screen. The pooled donor HUVEC and hMSC were cultured in endothelial cell growth medium 2 (PromoCell, Heidelberg, Germany, cat. C-22011) and mesenchymal stem cell growth medium 2 (PromoCell, cat. C-28009), respectively. For all experiments, HUVEC and hMSC were used at passages </=5.
[…]

The mark [1] stands for this setting: curve of first compound, second compound 0.1 µM.
The mark [2] stands for this setting: curve of first compound, second compound 0.316 µM.
The mark [3] stands for this setting: curve of first compound, second compound 1 µM.
Setting [4] is: second compound 0.1 µM, first compound 0.0316 µM.
The mark [5] stands for this setting: second compound 0.1 µM, first compound 0.1 µM.
[6] abbreviates: second compound 0.1 µM, first compound 0.316 µM.
[7] abbreviates: second compound 0.1 µM, first compound 1 µM.
Where [8] appears, read: second compound 0.1 µM, first compound 3.16 µM.
[9] abbreviates: second compound 0.1 µM, first compound 10 µM.
[10] abbreviates: second compound 0.316 µM, first compound 0.0316 µM.
[11] abbreviates: second compound 0.316 µM, first compound 0.1 µM.
Where [12] appears, read: second compound 0.316 µM, first compound 0.316 µM.
The mark [13] stands for this setting: second compound 0.316 µM, first compound 1 µM.
[14] abbreviates: second compound 0.316 µM, first compound 3.16 µM.
Setting [15] is: second compound 0.316 µM, first compound 10 µM.
The mark [16] stands for this setting: second compound 1 µM, first compound 0.0316 µM.
Setting [17] is: second compound 1 µM, first compound 0.1 µM.
Setting [18] is: second compound 1 µM, first compound 0.316 µM.
Setting [19] is: second compound 1 µM, first compound 1 µM.
Where [20] appears, read: second compound 1 µM, first compound 3.16 µM.
[21] abbreviates: second compound 1 µM, first compound 10 µM.

Several values for one entry are separate records, joined by “and”; a condition that tells them apart may be missing. Equal values may be shown once. Some results are limits rather than exact numbers.
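Note: spheroids exposed to the agents for seven days before readout.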

Turning to `Cn1nccc1Nc1nccc(-c2ccn(C(CO)c3ccc(Cl)c(F)c3)c(=O)c2)n1` (stereo unspecified) + CC(C)NCC(C(=O)N1CCN(c2ncnc3c2C(C)CC3O)CC1)c1ccc(Cl)cc1, the IC50 runs as follows: under setting [1], 169 nM; under setting [2], 64.8 nM; under setting [3], less than 31.6 nM; (curve of first compound, second compound 3.16 µM) less than 31.6 nM; (curve of first compound, second compound 10 µM) less than 31.6 nM. Also, the viability, T/C reads like this: under setting [4], 111%; under setting [5], 65.8%; under setting [6], 32.5%; under setting [7], 10.4%; under setting [8], 7.79%; under setting [9], 7.95%. Besides, the viability, T/C is 69.1% under setting [10]; 38.5% under setting [11]; 9.02% under setting [12]; 4.73% under setting [13]; 3.47% under setting [14]; 3.81% under setting [15]. The viability, T/C is 17.9% under setting [16]; 10.3% under setting [17]; 3.68% under setting [18]; 2.46% under setting [19]; 2.13% under setting [20]; 1.27% under setting [21]. Further, the viability, T/C by setting is: (second compound 3.16 µM, first compound 0.0316 µM) 6.73%; (second compound 3.16 µM, first compound 0.1 µM) 3.37%; (second compound 3.16 µM, first compound 0.316 µM) 2.44%; (second compound 3.16 µM, first compound 1 µM) 1.77%; (second compound 3.16 µM, first compound 3.16 µM) 0.69%; (second compound 3.16 µM, first compound 10 µM) 0.94%. In addition, the viability, T/C is, setting by setting: (second compound 10 µM, first compound 0.0316 µM) 3.16%; (second compound 10 µM, first compound 0.1 µM) 2.33%; (second compound 10 µM, first compound 0.316 µM) 1.55%; (second compound 10 µM, first compound 1 µM) 1.06%; (second compound 10 µM, first compound 3.16 µM) 0.84%; (second compound 10 µM, first compound 10 µM) 0.32%.

With `Cn1ncc(Cl)c1-c1cc(C(=O)NC(CN)Cc2cccc(F)c2)sc1Cl` (stereo unspecified) + CCN1CCN(Cc2ccc(Nc3ncc(F)c(-c4cc(F)c5nc(C)n(C(C)C)c5c4)n3)nc2)CC1, the IC50 came out at 183 nM (curve of first compound, second compound 0.01 µM); 176 nM (curve of first compound, second compound 0.0316 µM); 167 nM under setting [1]; 207 nM under setting [2]; 345 nM under setting [3]. Besides, the viability, T/C (second compound 0.01 µM, first compound 0.0316 µM) was 116%; the viability, T/C (second compound 0.01 µM, first compound 0.1 µM) was 69.1%; the viability, T/C (second compound 0.01 µM, first compound 0.316 µM) is 31.4%; the viability, T/C (second compound 0.01 µM, first compound 1 µM) is 16.8%; the viability, T/C (second compound 0.01 µM, first compound 3.16 µM) was 3.11%; the viability, T/C (second compound 0.01 µM, first compound 10 µM) is 0.48%. The viability, T/C by setting is: (second compound 0.0316 µM, first compound 0.0316 µM) 116%; (second compound 0.0316 µM, first compound 0.1 µM) 67.4%; (second compound 0.0316 µM, first compound 0.316 µM) 31.1%; (second compound 0.0316 µM, first compound 1 µM) 15.9%; (second compound 0.0316 µM, first compound 3.16 µM) 4.15%; (second compound 0.0316 µM, first compound 10 µM) 0.13%. In addition, the viability, T/C runs as follows: under setting [4], 103%; under setting [5], 66.2%; under setting [6], 28%; under setting [7], 17.3%; under setting [8], 3.84%; under setting [9], 0.58%. Besides, the viability, T/C by setting is: under setting [10], 107%; under setting [11], 73.2%; under setting [12], 34%; under setting [13], 19.4%; under setting [14], 4.04%; under setting [15], 0.34%. For the same molecule, the viability, T/C was 122% under setting [16]; 87.9% under setting [17]; 50.1% under setting [18]; 27.3% under setting [19]; 8.61% under setting [20]; 0.61% under setting [21].

`CC1(C)CCC(CN2CCN(c3ccc(C(=O)NS(=O)(=O)c4ccc(NCC5CCOCC5)c([N+](=O)[O-])c4)c(Oc4cnc5[nH]ccc5c4)c3)CC2)=C(c2ccc(Cl)cc2)C1`: the viability, T/C was 107% and 93.6% (compound 0.0316 µM); 102% and 84.1% (compound 0.1 µM); 93.8% and 78.3% (compound 0.316 µM); 92.5% and 66.3% (compound 1 µM); 89.8% and 87.8% (compound 3.16 µM); 23.9% and 16.5% (compound 10 µM). The IC50 (curve of compound) is 6280 nM and 5550 nM.

Consider `Cn1nccc1Nc1nccc(-c2ccn(C(CO)c3ccc(Cl)c(F)c3)c(=O)c2)n1` (stereo unspecified), for which the viability, T/C was 107% and 117% (compound 0.0316 µM); 108% and 112% (compound 0.1 µM); 77.1% and 79% (compound 0.316 µM); 39.2% and 41.8% (compound 1 µM); 22.2% and 22.1% (compound 3.16 µM); 19.1% and 18.8% (compound 10 µM). Moreover, for the setting “curve of compound”, the IC50 is 713 nM and 761 nM.

As to `CCN1CCN(Cc2ccc(Nc3ncc(F)c(-c4cc(F)c5nc(C)n(C(C)C)c5c4)n3)nc2)CC1`, the viability, T/C is 91.6% [middle of 13 runs] (compound 0.01 µM), 105% [middle of 13 runs] (compound 0.0316 µM), 116% [middle of 13 runs] (compound 0.1 µM) and 149% [middle of 13 runs] (compound 1 µM). The IC50 (compound alone, run of 05/18/2021) was more than 1000 nM.

`CC(C)n1nc(-c2ccc3oc(N)nc3c2)c2c(N)ncnc21`: the viability, T/C is 109% and 103% (compound 0.000316 µM); 114% and 106% (compound 0.001 µM); 82.1% and 64% (compound 0.00316 µM); 28.1% and 18.6% (compound 0.01 µM); 4.54% and 3.87% (compound 0.0316 µM); 2.72% and 2.73% (compound 0.1 µM). Moreover, the IC50 (curve of compound) was 6.27 nM and 4.58 nM.

As usually defined, the IC50 is the concentration that gives 50% inhibition. Usually viability, T/C stands for the ratio of treated to control.

The values are drawn from PubChem BioAssay AID2060342 (Molecular Pharmacology Branch, DTP, NCI, 2025).
